What all share (type): in vivo, BALB/c nude mice
The test system of experiment [1] is phosphorylated ERK. Description: Western blot of phosphorylated ERK in M5 tumors. To be noted: vs control group. On the procedure:
(§1) The mice were observed daily for clinical signs, weighed them every three days, and at one month after tumor-cell implantation euthanized them with an overdose of anesthetic combined with carbon dioxide. Immediately before sacrificing the mice, the blood was collected from them under anesthesia for hematological assessment. After euthanizing the mice, the tumors were excised immediately. The tumor specimens were divided into two groups. One group was treated with 10% formalin and embedded the specimens in paraffin. These specimens were investigated by hematoxylin and eosin staining; terminal deoxyribonucleotidyl transferase (TdT)-mediated biotin-16-dUTP nick-end labeling (TUNEL assay; APO-BrdU TUNEL Assay Kit, BD Pharmingen, San Diego, CA, USA); and IHC for IL-1β, TNF-α, TGF-β, and CD44, using primary antibodies against these factors (Merck, Billerica, MA, USA). Protein expression was assessed via IHC with the […] mouse/rabbit polymer detection system produced by BioTnA (Kaohsiung, Taiwan). A high-resolution digital microscope (Moticam 2300, Motic Instruments, Richmond, Canada) equipped with Motic Images Plus (version 2.0) was used to capture and analyze the images. […] Protein expression and phosphorylation were quantified with ImageJ (National Institutes of Health, Bethesda, […], USA).
Background: A western blot detects proteins with antibodies after separation by electrophoresis.

Experiment [2] concerns cyclooxygenase-2 (COX-2). As to the kind of experiment: Western blot of COX-2 in M5 tumors. To be noted: vs control group. On the procedure: The mice were observed daily for clinical signs, weighed them every three days, and at one month after tumor-cell implantation euthanized them with an overdose of anesthetic combined with carbon dioxide. Immediately before sacrificing the mice, the blood was collected from them under anesthesia for hematological assessment. After euthanizing the mice, the tumors were excised immediately. The tumor specimens were divided into two groups. One group was treated with 10% formalin and embedded the specimens in paraffin. These specimens were investigated by hematoxylin and eosin staining; terminal deoxyribonucleotidyl transferase (TdT)-mediated biotin-16-dUTP nick-end labeling (TUNEL assay; APO-BrdU TUNEL Assay Kit, BD Pharmingen, San Diego, CA, USA); and IHC for IL-1β, TNF-α, TGF-β, and CD44, using primary antibodies against these factors (Merck, Billerica, MA, USA). Protein expression was assessed via IHC with the TAlink mouse/rabbit polymer detection system produced by BioTnA (Kaohsiung, Taiwan). […]
Western blotting on the second group of tumor specimens was performed according to standard protocol (Wu et al 2020). […] Protein expression and phosphorylation were quantified with ImageJ (National Institutes of Health, Bethesda, […], USA).

In experiment [3] the test system is cleaved caspase 3. Description: Western blot of cleaved caspase 3 in M5 tumors. To be noted: vs control group. On the procedure:
as §1

Experiment [4] concerns TNF-α. As to the kind of experiment: IHC analysis of TNF-α in M5 tumors. To be noted: relative to the control group. On the procedure: (§2) The mice were observed daily for clinical signs, weighed them every three days, and at one month after tumor-cell implantation euthanized them with an overdose of anesthetic combined with carbon dioxide. Immediately before sacrificing the mice, the blood was collected from them under anesthesia for hematological assessment. After euthanizing the mice, the tumors were excised immediately. The tumor specimens were divided into two groups. One group was treated with 10% formalin and embedded the specimens in paraffin. These specimens were investigated by hematoxylin and eosin staining; terminal deoxyribonucleotidyl transferase (TdT)-mediated biotin-16-dUTP nick-end labeling (TUNEL assay; APO-BrdU TUNEL Assay Kit, BD Pharmingen, San Diego, CA, USA); and IHC for IL-1β, TNF-α, TGF-β, and CD44, using primary antibodies against these factors (Merck, Billerica, MA, USA). Protein expression was assessed via IHC with the […] mouse/rabbit polymer detection system produced by BioTnA (Kaohsiung, Taiwan). A high-resolution digital microscope (Moticam 2300, Motic Instruments, Richmond, Canada) equipped with Motic Images Plus (version 2.0) was used to capture and analyze the images. The other groups of tumor specimens were first minced coarsely and homogenized, and then stored in a freezer at -80° C.

The subject of experiment [5] is M5 canine melanoma tumor. Description: TUNEL/DAPI assay of apoptosis in excised M5 tumors. To be noted: cisplatin 2 mg/kg, PTS 100 mg/kg IP three times per week. On the procedure: as §2

Experimental findings from patent US12409158B2, “Combination therapy for treating cancer” (GONGWIN BIOPHARM CO., LTD, priority 2022, dated 2025) are described below.

For `N.N.[Cl][Pt][Cl]` [Cisplatin, cisplatin, reference compound], the “phosphorylated ERK expression” value in experiment [1] is on record as “significantly higher”. In experiment [2], the “Expression of cyclooxygenase-2 (COX-2)” value was “lower”. Besides, the “cleaved caspase 3 expression” value in experiment [3] is “significantly higher”. The compound further displayed a TNF-α activity reduction in experiment [4] of 77.4%. Also, the “TUNEL-positive cell count as multiple of the control” value in experiment [5] is listed as 3.9 times.
In the case of `Cc1ccc(S(N)(=O)=O)cc1` [PTS, p-Toluenesulfonamide], in experiment [1], the “phosphorylated ERK expression” value is listed as “significantly higher”. Also, the “Expression of cyclooxygenase-2 (COX-2)” value in experiment [2] is recorded as “lower”. For the same compound, the “cleaved caspase 3 expression” value in experiment [3] is reported as “significantly higher”. For the same compound, the TNF-α activity reduction in experiment [4] is recorded as 73.0%. Further, the “TUNEL-positive cell count as multiple of the control” value in experiment [5] was 3.5 times.
